In patent US12514858B2, “CD38 inhibitors” (Astellas Engineered Small Molecules US, Incorporated, priority 2020, dated 2026) one finds IC50 data, which are given here for 17 compounds.

For the test, the target named is Human CD38 (Homo sapiens (Human), UniProt P28907). The test is described as follows: Determination of IC50 against human CD38 (CD38 Inhibitor Screening Assay Kit, glycohydrolase activity, fluorescence). The class given is biochemical. The settings on record: CD38 hydrolase enzyme, 30 min preincubation at room temperature, F-NAD substrate, excitation 300 nm, emission 410 nm; read-out: hCD38 IC50. The method, then: CD38 hydrolase buffer (4×) was thawed on ice and 1×CD38 hydrolase buffer was prepared by diluting 4×CD38 hydrolase buffer with water. CD38 hydrolase enzyme was diluted to […] with 1×CD38 hydrolase buffer (10 ng/well). Master mix was prepared by mixing equal volumes of water and CD38 hydrolase buffer (4×) and 10 μl of the mix was added to all the wells. Following master mix addition, 10 μl of the inhibitors and 20 μl of CD38 hydrolase enzyme were added to the wells. For wells designated blank, 10 μl and 20 μl of 1× CD38 hydrolase buffer was added respectively in place of […]. The plate was covered and incubated 30 min at room temperature with slow shaking at 400 rpm. After 30 min incubation, the plate was removed and 10 μl of diluted F-NAD substrate was added to all the wells. The plate is incubated for 10 min, spun at 1200 rpm for 30 secs to remove bubbles and read in Tecan Spark using a fluorometer setting of excitation 300 nm and emission 410 nm. The reading for the blank was subtracted from all the values. IC50 for the test compounds were determined by using Graphpad prism software v7.0.
Sequence of Human CD38 (P28907 whole entry): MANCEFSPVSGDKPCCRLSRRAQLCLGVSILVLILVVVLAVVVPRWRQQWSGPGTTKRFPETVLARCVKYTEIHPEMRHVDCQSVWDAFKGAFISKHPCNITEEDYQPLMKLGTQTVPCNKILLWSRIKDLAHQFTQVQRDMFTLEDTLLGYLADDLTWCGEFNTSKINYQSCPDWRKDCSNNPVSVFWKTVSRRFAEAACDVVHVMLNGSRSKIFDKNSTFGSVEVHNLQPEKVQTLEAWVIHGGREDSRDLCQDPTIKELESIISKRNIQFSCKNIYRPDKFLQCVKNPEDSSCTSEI
What is called IC50 is the midpoint of a concentration-inhibition curve. `COCCO[C@H]1CC[C@H](NC(=O)c2cc(SC)nc(-c3cncs3)n2)CC1` [Ex. 7, N-((1r,4r)-4-(2-methoxyethoxy)cyclohexyl)-6-(methylthio)-2-(thiazol-5-yl)pyrimidine-4-carboxamide]: the IC50 was over 10 µM. For `COCCO[C@H]1C[C@H](NC(=O)c2ccnc(-n3ccnc3)n2)C1` [Ex. 65, 2-(1H-imidazol-1-yl)-N-((1r,3r)-3-(2-methoxyethoxy)cyclobutyl)pyrimidine-4-carboxamide], the IC50 amounted to 0.227 µM. The value for `O=C(N[C@H]1CC[C@H](OC(F)F)CC1)c1ccnc(-n2ccnc2)n1` [Ex. 41, N-((1r,4r)-4-(difluoromethoxy)cyclohexyl)-2-(1H-imidazol-1-yl)pyrimidine-4-carboxamide] was 0.016 µM. The value for `Cc1cc(C(=O)N[C@H]2CC[C@H](OCCO)CC2)nc(-n2ccnc2)n1` [Ex. 44, N-((1r,4r)-4-(2-hydroxyethoxy)cyclohexyl)-2-(1H-imidazol-1-yl)-6-methylpyrimidine-4-carboxamide] was 0.012 µM; that for `O=C(N[C@H]1CC[C@H](O)CC1)c1ccnc(-n2ccnc2)n1` [Ex. 34, N-((1r,4r)-4-hydroxycyclohexyl)-2-(1H-imidazol-1-yl)pyrimidine-4-carboxamide] was 0.0257 µM. Regarding `COCCO[C@H]1CC[C@H](NC(=O)c2cc(C(C)(C)O)cc(-n3ccnc3)n2)CC1` [Ex. 40, 4-(2-Hydroxypropan-2-yl)-6-(1H-imidazol-1-yl)-N-((1r,4r)-4-(2-methoxyethoxy)cyclohexyl)picolinamide], the 50% inhibitory concentration (IC50) worked out at 1.9 µM. The value for `COCCO[C@H]1CC[C@H](NC(=O)c2cc(-n3ccnc3)nc(-n3ccnc3)c2)CC1` [Ex. 22, 2,6-di(1H-imidazol-1-yl)-N-((1r,4r)-4-(2-methoxyethoxy)cyclohexyl)isonicotinamide] was 0.0179 µM.

With `COCCO[C@H]1CC[C@H](NC(=O)c2cc(S(C)(=O)=O)cc(-n3ccnc3)n2)CC1` [Ex. 39, 6-(1H-imidazol-1-yl)-N-((1r,4r)-4-(2-methoxyethoxy)cyclohexyl)-4-(methylsulfonyl)picolinamide], the IC50 was found to be 0.137 µM. The value for `COCCO[C@H]1CC[C@H](NC(=O)c2cc(C(F)(F)F)nc(-n3ccnc3)n2)CC1` [Ex. 36, 2-(1H-imidazol-1-yl)-N-((1r,4r)-4-(2-methoxyethoxy)cyclohexyl)-6-(trifluoromethyl)pyrimidine-4-carboxamide] was 0.039 µM; that for `COCCO[C@H]1CC[C@H](NC(=O)c2cc(C(F)F)cc(-n3ccnc3)n2)CC1` [Ex. 59, 4-(difluoromethyl)-6-(1H-imidazol-1-yl)-N-((1r,4r)-4-(2-methoxyethoxy)cyclohexyl)picolinamide] was 0.0209 µM. The value for `COCCO[C@H]1CC[C@H](NC(=O)c2cc(C#N)cc(-n3ccnc3)n2)CC1` [Ex. 43, 4-Cyano-6-(1H-imidazol-1-yl)-N-((1r,4r)-4-(2-methoxyethoxy)cyclohexyl)picolinamide] was 0.017 µM; that for `COCCO[C@H]1CC[C@H](NC(=O)c2cccc(-n3ccnc3)n2)CC1` [Ex 11, 6-(1H-imidazol-1-yl)-N-((1r,4r)-4-(2-methoxyethoxy)cyclohexyl)picolinamide] was 0.049 µM; that for `O=C(N[C@H]1CC[C@H](O)CC1)c1cccc(-n2ccnc2)n1` [Ex. 31, N-((1r,4r)-4-hydroxycyclohexyl)-6-(1H-imidazol-1-yl)picolinamide] was 0.054 µM.

Turning to `COCCO[C@H]1CC[C@H](NC(=O)c2cc(C(N)=O)nc(-n3ccnc3)n2)CC1` [Ex. 48, 2-(1H-imidazol-1-yl)-N-((1r,4r)-4-(2-methoxyethoxy)cyclohexyl)pyrimidine-4,6-dicarboxamide], the IC50 came to 0.018 µM. The value for `COCCO[C@H]1CC[C@H](NC(=O)c2cc(C)nc(-n3ccnc3)c2)CC1` [Ex. 46, 2-(1H-imidazol-1-yl)-N-((1r,4r)-4-(2-methoxyethoxy)cyclohexyl)-6-methylisonicotinamide] was 0.144 µM; that for `COCCO[C@H]1CC[C@H](NC(=O)c2cc(-c3cncs3)nc(C(F)(F)F)c2)CC1` [Ex. 4, N-((1r,4r)-4-(2-methoxyethoxy)cyclohexyl)-2-(thiazol-5-yl)-6-(trifluoromethyl)isonicotinamide] was 3.5 µM; that for `O=C(NC1CCCCC1)c1cccc(-n2ccnc2)n1` [Ex. 32, N-cyclohexyl-6-(1H-imidazol-1-yl)picolinamide] was 0.053 µM.
